≈ marks a conversion by molar mass, not a printed value. Each block holds one compound with its values, some of them ahead of it.
Legend:
[1] = tested on: MV-Alaska; experiment: Viral CPE-reduction assay (MeV-Alaska in Vero-SLAM cells, crystal violet); format: cell-based, Measles virus (MeV)
Experimental: Methods for evaluating viral activity are provided for in Yoon et al., J Biomol Screen., 2008, 13(7): 591-608 and Krumm et al., PLoS ONE, 2011, 6(5), e20069, both hereby incorporated by reference in their entirety. In certain instances, Vero-SLAM cells were infected with MeV-Alaska in four replicates per compound concentration in a 96-well plate format at an MOI of 0.4 pfu/cell in the presence of the inhibitor. At 96 hours post-infection, cell monolayers were subjected to crystal violet staining (0.1% crystal violet in 20% ethanol), and the absorbance of dried plates at 560 nm determined. Virus-induced cytopathicity was then calculated according to the formula [% rel. CPE=100-(experimental-minimum)/(maximum-minimum)*100], with minimum referring to infected, vehicle-treated wells and maximum to mock-infected wells.

[2] = Aqueous solubility by nephelometry; format: physicochemical; settings: buffer pH=7.4; for Aqueous solubility (μg/ml) Test: Nephelometer
[3] = tested on: Vero cells; experiment: MTT cytotoxicity; format: cell-based; settings: averages of at least three experiments; highest concentration assessed 75 μM
[4] = tested on: MV-Alaska; experiment: Virus yield (virus titer) reduction assay; format: cell-based, Measles virus (MeV); settings: Measles morbillivirus
[5] = Pharmacokinetic study in rat, plasma concentration after dosing; format: in vivo, Sprague-Dawley rat; settings: for AUC (0-t) / AUC (0-∞) / Cmax / Tmax / T½: suspension in PEG200/0.5% methylcellulose (10/90)
Experimental: Preliminary pharmacokinetic (PK) studies in the Sprague-Dawley rat compared AS-136a with compounds 2k and 2o following p.o. dosing by oral gavage at 10 mg/kg and 50 mg/kg in a PEG200/0.5% methylcellulose (10/90) vehicle (n=4/group).
The data from the preliminary pharmacokinetic studies using the 6-hour time point are reported for comparison purposes. […] On the basis of its excellent in vitro potency, good solubility and pharmacokinetic profile, compound 2o was chosen for further bioavailability evaluation.

[6] = Measles morbillivirus, Table 1, piperidine series, read-out: EC50 (μM) (MV-Alaska) (CPE inhib.)
[7] = Measles morbillivirus, Table 2, phenyl and acyclic series, read-out: EC50 (μM) (MV-Alaska) (CPE inhibition)
[8] = Measles morbillivirus, Table 3, averages of four experiments, concentration range 2.3-75 μM, read-out: EC50 (μM) (MV-Alaska) CPE inhibition
[9] = averages of two to four experiments ± SEM, highest concentration assessed 1 μM, read-out: EC50 (μM) (MV-Alaska) virus titer reduction
[10] = Measles morbillivirus, read-out: EC50 (μM) (MV-Alaska) (CPE inhib.)
[11] = Table 1, piperidine series, read-out: EC50 (μM) (MV-Alaska) (CPE inhib.)

EC50 [1, 6]: 6.8 µM
Structure (SMILES): Cn1nc(C(F)(F)F)cc1C(=O)Nc1ccc(S(=O)(=O)N2CCCCC2/C=C/CO)cc1 (stereo not drawn) [Compound 2h, N-(4-((2-(3-hydroxypropyl-1-ene)piperidin-1-yl)sulfonyl)phenyl)-1-methyl-3-(trifluoromethyl)-pyrazole-5-carboxamide]

EC50 [1, 7]: 3.1 µM
EC50 [1, 8]: 3.1 µM
Aqueous solubility (μg/ml) Test [2]: 46 µg/mL
Structure (SMILES): Cn1nc(C(F)(F)F)cc1C(=O)Nc1ccc(S(=O)(=O)c2ccccc2CO)cc1 [Compound 3f, N-(4-((2-(hydroxymethyl)phenyl)sulfonyl)phenyl)-1-methyl-3-(trifluoromethyl)-pyrazole-5-carboxamide]
CC50 [3]: > 75 µM

EC50 [1, 6]: 2.8 µM
EC50 [1, 8]: 2.3 µM
Aqueous solubility (μg/ml) Test [2]: 61 µg/mL
Structure (SMILES): Cn1nc(C(F)(F)F)cc1C(=O)Nc1ccc(S(=O)(=O)N2CCCCC2CO)cc1 (stereo not drawn) [Compound 2a]
EC50 [4, 9]: 0.85 ± 0.05 µM
CC50 [3]: > 75 µM

EC50 [1, 6]: 4.6 µM
Aqueous solubility (μg/ml) Test [2]: 55 µg/mL
Structure (SMILES): Cn1nc(C(F)(F)F)cc1C(=O)Nc1ccc(S(=O)(=O)N2CCCCC2CCN2CCOCC2)cc1 (stereo not drawn) [Compound 2n, 1-methyl-N-(4-((2-(2-morpholinoethyl)piperidin-1-yl)sulfonyl)phenyl)-3-(trifluoromethyl)-pyrazole-5-carboxamide]
CC50 [3]: > 75 µM

aqueous solubility ([2]; nephelometry): 15.0 µg/mL (≈ 36 µM)
AUC (0-t) ([5]; oral 10 mg/kg): 132 ng·h/mL
AUC (0-∞) ([5]; oral 10 mg/kg): 513 ng·h/mL
Cmax ([5]; oral 10 mg/kg): 26.9 ng/mL
Tmax ([5]; oral 10 mg/kg): 2.5 h
T½ ([5]; oral 10 mg/kg): 12.7 h
AUC (0-t) ([5]; oral 50 mg/kg): 308 ng·h/mL
AUC (0-∞) ([5]; oral 50 mg/kg): 483 ng·h/mL
Cmax ([5]; oral 50 mg/kg): 72.2 ng/mL
Tmax ([5]; oral 50 mg/kg): 2.7 h
T½ ([5]; oral 50 mg/kg): 3.7 h
Structure (SMILES): Cn1nc(C(F)(F)F)cc1C(=O)Nc1ccc(S(=O)(=O)N2CCCCC2)cc1 [AS-136a, 1-methyl-N-(4-(piperidin-1-ylsulfonyl)phenyl)-3-(trifluoromethyl)-pyrazole-5-carboxamide, reference compound]
EC50 [4, 9]: 0.014 µM
CC50 [3]: > 75 µM

EC50 [1, 6]: 1.5 µM
Structure (SMILES): COCOCC1CCCCN1S(=O)(=O)c1ccc(NC(=O)c2cc(C(F)(F)F)nn2C)cc1 (stereo not drawn) [Compound 1a, N-(4-((2-((methoxymethoxy)methyl)piperidin-1-yl)sulfonyl)phenyl)-1-methyl-3-(trifluoromethyl)-pyrazole-5-carboxamide]
fold more potent than the corresponding 3-piperidine ([1]; MOM ether analogs, CPE assay): 2 fold

Structure (SMILES): Cn1nc(C(F)(F)F)cc1C(=O)Nc1ccc(S(=O)(=O)N2CCCCC2CN)cc1 (stereo not drawn) [Compound 2d, N-(4-((2-(aminomethyl)piperidin-1-yl)sulfonyl)phenyl)-1-methyl-3-(trifluoromethyl)-pyrazole-5-carboxamide]
EC50 [1, 10]: 55 µM

EC50 [1, 8]: 2.7 µM
EC50 ([1]; Measles morbillivirus, MV-Alaska, read-out: EC50, CPE assay): 2.7 µM
Aqueous solubility (μg/ml) Test [2]: 62 µg/mL
AUC (0-t) ([5]; oral 10 mg/kg): 56.3 ng·h/mL
AUC (0-∞) ([5]; oral 10 mg/kg): 56.8 ng·h/mL
Cmax ([5]; oral 10 mg/kg): 19.8 ng/mL
Tmax ([5]; oral 10 mg/kg): 1 h
T½ ([5]; oral 10 mg/kg): 0.8 h
AUC (0-t) ([5]; oral 50 mg/kg): 754 ng·h/mL
AUC (0-∞) ([5]; oral 50 mg/kg): 973 ng·h/mL
Cmax ([5]; oral 50 mg/kg): 184 ng/mL
Tmax ([5]; oral 50 mg/kg): 0.5 h
T½ ([5]; oral 50 mg/kg): 2.7 h
dose proportionality ([5]; p.o., range of 10 mg/kg to 50 mg/kg): non-proportionality
Structure (SMILES): Cn1nc(C(F)(F)F)cc1C(=O)Nc1ccc(S(=O)(=O)N2CCCCC2CCO)cc1 (stereo not drawn) [Compound 2k, N-(4-((2-(2-hydroxyethyl)piperidin-1-yl)sulfonyl)phenyl)-1-methyl-3-(trifluoromethyl)-pyrazole-5-carboxamide]
EC50 ([4]; MV-Alaska, read-out: EC50 in the virus titer reduction assay): 0.06 µM
EC50 [4, 9]: 0.06 µM
CC50 [3]: > 75 µM

EC50 [1, 6]: 6.7 µM
Structure (SMILES): Cn1nc(C(F)(F)F)cc1C(=O)Nc1ccc(S(=O)(=O)N2CCCCC2CCCO)cc1 (stereo not drawn) [Compound 2j, N-(4-((2-(3-hydroxypropyl)piperidin-1-yl)sulfonyl)phenyl)-1-methyl-3-(trifluoromethyl)-pyrazole-5-carboxamide]

EC50 [1, 7]: 2.8 µM
Aqueous solubility (μg/ml) Test [2]: 22 µg/mL
Structure (SMILES): Cn1nc(C(F)(F)F)cc1C(=O)Nc1ccc(S(=O)(=O)c2ccccc2)cc1 [Compound 3a, 1-methyl-N-(4-(phenylsulfonyl)phenyl)-3-(trifluoromethyl)-pyrazole-5-carboxamide]
EC50 [4, 9]: 0.02 µM
CC50 [3]: > 75 µM

EC50 [1, 6]: 1.5 µM
Structure (SMILES): Cn1nc(C(F)(F)F)cc1C(=O)Nc1ccc(S(=O)(=O)N2CCCCC2CN=[N+]=[N-])cc1 (stereo not drawn) [Compound 2c]

Structure (SMILES): CCOC(=O)/C=C/C1CCCCN1S(=O)(=O)c1ccc(NC(=O)c2cc(C(F)(F)F)nn2C)cc1 (stereo not drawn) [Compound 2g, ethyl 3-(1-((4-(1-methyl-3-(trifluoromethyl)-pyrazole-5-carboxamido)phenyl)sulfonyl)piperidin-2-yl)acrylate]
fold more active than the corresponding alcohols (2h and 2j) ([1]; CPE assay): 2 fold
EC50 [1, 10]: 3.7 µM

EC50 [1, 6]: 16 µM
Structure (SMILES): COCOCC1CCN(S(=O)(=O)c2ccc(NC(=O)c3cc(C(F)(F)F)nn3C)cc2)CC1 [Compound 1c, N-(4-((4-((methoxymethoxy)methyl)piperidin-1-yl)sulfonyl)phenyl)-1-methyl-3-(trifluoromethyl)-pyrazole-5-carboxamide]
fold reduction of activity, 4-substituted derivative ([1]; MOM ether analogs, CPE assay, versus 2-piperidine 1a): ~10 fold

EC50 [1, 7]: 4.5 µM
Structure (SMILES): CC(=O)Oc1ccccc1S(=O)(=O)c1ccc(NC(=O)c2cc(C(F)(F)F)nn2C)cc1 [Compound 3d, 2-((4-(1-methyl-3-(trifluoromethyl)-pyrazole-5-carboxamido)phenyl)sulfonyl)phenyl acetate]

EC50 [1, 7]: 3.1 µM
Structure (SMILES): COc1ccccc1S(=O)(=O)c1ccc(NC(=O)c2cc(C(F)(F)F)nn2C)cc1 [Compound 3b, N-(4-((2-methoxyphenyl)sulfonyl)phenyl)-1-methyl-3-(trifluoromethyl)-pyrazole-5-carboxamide]
CC50 [3]: > 75 µM

EC50 [1, 6]: 9.3 µM
Structure (SMILES): Cn1nc(C(F)(F)F)cc1C(=O)Nc1ccc(S(=O)(=O)N2CCCCC2CN2CCOCC2)cc1 (stereo not drawn) [Compound 2b, 1-methyl-N-(4-((2-(morpholinomethyl)piperidin-1-yl)sulfonyl)phenyl)-3-(trifluoromethyl)-pyrazole-5-carboxamide]

EC50 [1, 6]: 8.3 µM
Structure (SMILES): Cn1nc(C(F)(F)F)cc1C(=O)Nc1ccc(S(=O)(=O)N2CCCCC2COCCO)cc1 (stereo not drawn) [Compound 2q, N-(4-((2-((2-hydroxyethoxy)methyl)piperidin-1-yl)sulfonyl)phenyl)-1-methyl-3-(trifluoromethyl)-pyrazole-5-carboxamide]

EC50 [1, 6]: 3.8 µM
Structure (SMILES): COCOCC1CCCN(S(=O)(=O)c2ccc(NC(=O)c3cc(C(F)(F)F)nn3C)cc2)C1 (stereo not drawn) [Compound 1b, N-(4-((3-((methoxymethoxy)methyl)piperidin-1-yl)sulfonyl)phenyl)-1-methyl-3-(trifluoromethyl)-pyrazole-5-carboxamide]

EC50 [1, 6]: 2.7 µM
Structure (SMILES): CCOC(=O)CCC1CCCCN1S(=O)(=O)c1ccc(NC(=O)c2cc(C(F)(F)F)nn2C)cc1 (stereo not drawn) [Compound 2i, ethyl 3-(1-((4-(1-methyl-3-(trifluoromethyl)-pyrazole-5-carboxamido)phenyl)sulfonyl)piperidin-2-yl)propanoate]
fold more active than the corresponding alcohols (2h and 2j) ([1]; CPE assay): 2 fold

EC50 [1, 11]: 3.1 µM
Structure (SMILES): Cn1nc(C(F)(F)F)cc1C(=O)Nc1ccc(S(=O)(=O)N2CCCCC2CCO)cc1 (stereo not drawn) [Compound 2m, N-(4-((2-(2-hydroxyethyl)piperidin-1-yl)sulfonyl)phenyl)-1-methyl-3-(trifluoromethyl)-pyrazole-5-carboxamide]

EC50 [1, 6]: 25 µM
Structure (SMILES): CCOC(=O)COCC1CCCCN1S(=O)(=O)c1ccc(NC(=O)c2cc(C(F)(F)F)nn2C)cc1 (stereo not drawn) [Compound 2p, ethyl 2-((1-((4-(1-methyl-3-(trifluoromethyl)-pyrazole-5-carboxamido)phenyl)sulfonyl)piperidin-2-yl)methoxy)acetate]

EC50 [1, 6]: 14 µM
Structure (SMILES): CC(=O)NCC1CCCCN1S(=O)(=O)c1ccc(NC(=O)c2cc(C(F)(F)F)nn2C)cc1 (stereo not drawn) [Compound 2e, N-(4-((2-(acetamidomethyl)piperidin-1-yl)sulfonyl)phenyl)-1-methyl-3-(trifluoromethyl)-pyrazole-5-carboxamide]

EC50 [1, 11]: 8.3 µM
Structure (SMILES): Cn1nc(C(F)(F)F)cc1C(=O)Nc1ccc(S(=O)(=O)N2CCCCC2CCO)cc1 (stereo not drawn) [Compound 2l, N-(4-((2-(2-hydroxyethyl)piperidin-1-yl)sulfonyl)phenyl)-1-methyl-3-(trifluoromethyl)-pyrazole-5-carboxamide]
fold loss of activity compared to 2m ([1]; CPE assay, R versus S chirality): 3 fold
